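The compound was tested at five concentrations on cells cultured in 96-well plates, with a 48-hour exposure period. TGI denotes the concentration required for complete inhibition of growth.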

Here are results for ten compounds from PubChem BioAssay (NCI).

Among the test systems are MALME-3M melanoma; M14 melanoma; CCRF-CEM leukemia; 786-0 renal; RXF 393 renal; HOP-62 NSCLC; EKVX NSCLC; HL-60(TB) leukemia; TK-10 renal; SNB-19 CNS; K-562 leukemia; SW-620 colon; OVCAR-5 ovarian; LOX IMVI melanoma; HCC-2998 colon; T-47D breast; MCF7 breast; MDA-MB-435.
Holding throughout (assay): DTP human tumour cell line panel, 48 h

Turning to `COC1=CC(=O)c2ccccc2C1(C)C1=NC(C)(C)CO1` (centres undefined), the TGI with MALME-3M melanoma, in the experiment on M14 melanoma, with CCRF-CEM leukemia, in the experiment with 786-0 renal, with RXF 393 renal and with HOP-62 NSCLC was > 100 µM each time. The TGI in the experiment on EKVX NSCLC, in the experiment with HL-60(TB) leukemia, in the experiment on TK-10 renal, in the experiment on SNB-19 CNS, with K-562 leukemia and in the experiment on SW-620 colon was > 100 µM each time.
In the case of `C[N+](C)(Cc1ccc(NC(=O)CCCC(=O)ON2C(=O)CCC2=O)cc1)c1ccccc1`, the TGI in the experiment on MALME-3M melanoma was < 0.01 µM; in the experiment on M14 melanoma, > 100 µM; with CCRF-CEM leukemia, > 100 µM; with 786-0 renal, > 100 µM; in the experiment with OVCAR-5 ovarian, < 0.01 µM; in the experiment on LOX IMVI melanoma, > 100 µM. The TGI with HL-60(TB) leukemia, in the experiment on TK-10 renal, in the experiment on SNB-19 CNS, in the experiment on K-562 leukemia and in the experiment on SW-620 colon was > 100 µM each time.
Turning to `O=S(Cc1cc2c(cc1Br)OCO2)c1ccccc1` (centres undefined), the TGI is > 100 µM with MALME-3M melanoma; > 100 µM in the experiment with M14 melanoma; 76.3 µM in the experiment with CCRF-CEM leukemia; > 100 µM in the experiment with 786-0 renal; > 100 µM with RXF 393 renal; > 100 µM with OVCAR-5 ovarian. For the same compound, the TGI is > 100 µM with HCC-2998 colon; > 100 µM in the experiment with HOP-62 NSCLC; > 100 µM with EKVX NSCLC; 30.7 µM in the experiment on LOX IMVI melanoma; 57.4 µM in the experiment with HL-60(TB) leukemia; > 100 µM with TK-10 renal. Moreover, the figures for the TGI in the experiment with SNB-19 CNS, in the experiment with K-562 leukemia and with SW-620 colon were > 100 µM, > 100 µM and 29.7 µM, respectively.
In the case of `CCCCCC(=O)Cc1cc(OC)cc2c1C(=O)Oc1cc(O)c(C(=O)O)c(CC(=O)CCCCC)c1O2`, the TGI is > 100 µM with MALME-3M melanoma; > 100 µM in the experiment on M14 melanoma; > 100 µM with CCRF-CEM leukemia; 37.7 µM with 786-0 renal; > 100 µM in the experiment on OVCAR-5 ovarian; > 100 µM in the experiment with HCC-2998 colon. Also, the TGI in the experiment on HOP-62 NSCLC, with EKVX NSCLC, in the experiment with LOX IMVI melanoma, in the experiment on HL-60(TB) leukemia, in the experiment on TK-10 renal and in the experiment with K-562 leukemia was > 100 µM each time. Moreover, the concentration for total growth inhibition (TGI) with SW-620 colon is > 100 µM.
Take `COC(=O)c1cc(C)n(NC(=O)OC(C)(C)C)c1C`: the total growth inhibition concentration (TGI) in the experiment on MALME-3M melanoma, in the experiment with M14 melanoma, in the experiment on CCRF-CEM leukemia, in the experiment on 786-0 renal, in the experiment on RXF 393 renal and with OVCAR-5 ovarian was > 100 µM each time. For the same compound, the TGI in the experiment with HCC-2998 colon, in the experiment on HOP-62 NSCLC, with EKVX NSCLC, with LOX IMVI melanoma, with HL-60(TB) leukemia and in the experiment with TK-10 renal was > 100 µM each time. The TGI with SNB-19 CNS, in the experiment on K-562 leukemia and in the experiment on SW-620 colon was > 100 µM in each case.
With `C1=c2ccccc2=C2C(=C(c3ccccc3)C(c3ccccc3)=NN2c2ccccc2)S1`, the TGI with MALME-3M melanoma, in the experiment on M14 melanoma, in the experiment with CCRF-CEM leukemia, in the experiment with 786-0 renal, with RXF 393 renal and with OVCAR-5 ovarian was > 100 µM in each case. For the same compound, the TGI in the experiment on HCC-2998 colon, in the experiment on HOP-62 NSCLC, with EKVX NSCLC, with LOX IMVI melanoma, in the experiment with HL-60(TB) leukemia and with TK-10 renal was > 100 µM in each case. Moreover, the TGI with SNB-19 CNS, with K-562 leukemia and with SW-620 colon was > 100 µM each time.
For `Cc1cc(C)c(NS(=O)c2cccc([N+](=O)[O-])c2)c(C)c1` (centres undefined), the concentration for total growth inhibition (TGI) in the experiment with MALME-3M melanoma, in the experiment on M14 melanoma, with CCRF-CEM leukemia, in the experiment on 786-0 renal, with RXF 393 renal and in the experiment on OVCAR-5 ovarian was > 100 µM throughout. For the same compound, the TGI with T-47D breast, in the experiment with HOP-62 NSCLC, in the experiment with HL-60(TB) leukemia, with MCF7 breast, with TK-10 renal and in the experiment on MDA-MB-435 was > 100 µM throughout. Moreover, the TGI with SNB-19 CNS, in the experiment on K-562 leukemia and in the experiment on SW-620 colon was > 100 µM each time.
With `COc1cc(C2C(Cl)C(=O)N2NC(=O)Cc2ccccc2)ccc1O` (centres undefined), the concentration for total growth inhibition (TGI) with MALME-3M melanoma, with M14 melanoma, in the experiment with CCRF-CEM leukemia, in the experiment with 786-0 renal, with RXF 393 renal and with OVCAR-5 ovarian was > 100 µM throughout. Moreover, the TGI in the experiment with HCC-2998 colon is > 100 µM; with HOP-62 NSCLC, > 100 µM; in the experiment on EKVX NSCLC, > 100 µM; with LOX IMVI melanoma, > 100 µM; with HL-60(TB) leukemia, 80.7 µM; in the experiment with TK-10 renal it was > 100 µM. Moreover, the TGI in the experiment on SNB-19 CNS, in the experiment on K-562 leukemia and in the experiment with SW-620 colon was > 100 µM each time.
Regarding `CCCCCn1cnc2c1S(=O)(=O)N(C)C(NC(=O)c1ccccc1)=N2`, the TGI with CCRF-CEM leukemia, in the experiment with 786-0 renal, with HCC-2998 colon, in the experiment on HOP-62 NSCLC, in the experiment on EKVX NSCLC and with LOX IMVI melanoma was > 100 µM each time. Besides, the TGI in the experiment on HL-60(TB) leukemia, in the experiment with TK-10 renal, in the experiment on SNB-19 CNS, in the experiment on K-562 leukemia and in the experiment with SW-620 colon was > 100 µM in each case.
As for `COc1ccc(C2S/C(=C\c3cccc(O)c3)C(=O)N2NC(=O)Cc2ccccc2)cc1` (centres undefined), the TGI with MALME-3M melanoma, in the experiment with M14 melanoma, with CCRF-CEM leukemia, with 786-0 renal, in the experiment on RXF 393 renal and in the experiment with OVCAR-5 ovarian was > 100 µM in each case. The TGI in the experiment with HOP-62 NSCLC, with LOX IMVI melanoma, in the experiment with HL-60(TB) leukemia, with TK-10 renal, in the experiment on K-562 leukemia and in the experiment with SW-620 colon was > 100 µM in each case.

A word on the TGI: it is the concentration at which net growth stops.
